Experimental findings from a melting point compilation (Tetko et al.; mined from patent text by program, amines drawn as free bases though some values may be those of a salt) are described below.

Molecules are shown by their SMILES.

One may read the melting point as the temperature, or range, at which the solid turns liquid. The compound `CCOC(=O)c1cc(CC)sc1Nc1cc(F)cc(F)c1N` showed a melting point of 106 °C.

Consider `CS(=O)(=O)Nc1c([N+](=O)[O-])cnn1-c1c(Cl)cc(C(F)(F)F)c(F)c1Cl`, for which the melting point was in the range of 107 to 115 °C.

Turning to `C=CCCn1cnc2c1c(=O)n(C)c(=O)n2C`, the melting point came to 110 °C.

On to `CC1(C)OC(=O)C(=C2NCCN2)C(=O)O1`, for which the melting point lay within 181 to 182 °C.

`C=CCOc1ccc(Cl)c2c(=O)c3ccccc3sc12` had a melting point of 135 to 136 °C.

`Brc1nc2ncsc2nc1Br` registered a melting point of 142 to 144 °C.

`Oc1ccc(-c2cc3ccccc3[nH]2)cc1` displayed a melting point of 224 to 229 °C.

As for `CCC1CCc2nc3c(c(N)c2C1=O)c1ccccc1n3C` (centres undefined), the melting point is 129 to 131 °C.

`CCn1c(Nc2ccc(C(F)(F)F)cc2C(F)(F)F)nc(C(F)(F)F)c(Cl)c1=O` had a melting point of 124 °C.

As for `CN(C(=O)Cn1c(-c2ccc(C(F)(F)F)cc2)nc2cccnc21)c1ccccc1`, the melting point is 158 to 159 °C.

`COc1cccc(C2CSc3ccccc3NC2=O)c1` (centres undefined): the melting point amounted to 198 °C.

`NC(=O)Cc1ccc2c(c1)C(=O)c1ccccc1CO2`: the melting point lay in the range of 157 to 158 °C.

With `Cc1cc2oc(C#N)cc(=O)c2c(C)c1Cl`, the melting point was in the range of 142 to 143 °C.

Take `CCOC(=O)Nc1ccc(N2N=C(C)C(=CNc3ccccc3OC)C2=O)cc1`: the melting point is 212 °C.

`COc1cccc(C=CC(=O)C2=C(O)C(=C(C)Nc3ccccc3N)C(=O)OC2=O)c1OC` showed a melting point of 212 to 215 °C.

Turning to `NC(=O)CC(O)COC(c1ccccc1)(c1ccccc1)c1ccccc1` (centres undefined), the melting point is 59 to 60 °C.

`O=c1oc(-c2ccccc2)cc(O)c1C(Sc1ccccc1)C1CCCCC1` (centres undefined) yielded a melting point of 87 to 90 °C.

With `COC(=O)[C@@H]1[C@H](NCc2cc(OC(F)(F)F)ccc2OC)[C@H](c2ccccc2)N[C@@H]1C` (relative stereo), the melting point was in the range of 81 to 82 °C.

With `O=C(O)CCCc1cc2nc(C(F)(F)F)ccc2n1S(=O)(=O)c1ccc2c(c1)OCCO2`, the melting point was 158 °C.

As for `O=C1N(Cc2ccc(C(F)(F)F)o2)c2cc3c(cc2C12COc1cc4c(cc12)CCO4)OCCO3` (centres undefined), the melting point lay in the range of 189 to 191 °C.

On to `O=C1c2ccccc2C(=O)N1CC1CCc2cccnc2O1` (centres undefined), for which the melting point lay within 152 to 158 °C.

For `COc1ccc(CNC(SC)=C(C#N)C#N)cc1`, the melting point was in the range of 100 to 101 °C.

Take `CC(=O)Nc1cccc(-c2cncnc2)c1`: the melting point lay in the range of 157 to 158 °C.

On to `CCCCc1nc2cnc3ccccc3c2n1CCCCSc1ccc(F)cc1F`, for which the melting point is 122 to 126 °C.

With `O=c1cc(-c2ccccc2)[nH]c(=S)[nH]1`, the melting point is 266 to 267 °C.

For the compound `O=C(O)c1csc(Br)n1`, the melting point is 227 to 229 °C.

In the case of `ClCCCn1cc2cc(OCc3ccccc3)ccc2n1`, the melting point is 97 to 98 °C.

For the compound `Cc1nn(C)c(NCC(C)(C)C)c1N=O`, the melting point fell in the range of 83 to 84 °C.

Regarding `CCOc1cccc(OC)c1CN1CCC(=O)C(C(c2ccccc2)c2ccccc2)C1` (centres undefined), the melting point fell in the range of 137 to 138 °C.

Regarding `O=C(NCc1ccccn1)Nc1cc(N2CC(c3ccccc3F)CC2=O)ccn1` (centres undefined), the melting point fell in the range of 173 to 174 °C.

`O=C(O)CCc1ccc(SCCC(c2ccccc2)(c2ccccc2)c2ccccc2)cc1` showed a melting point of 51 to 53 °C.

With `COC(=O)[C@H]1[C@H](NC(C)=O)C(=O)O[C@@H]1C`, the melting point fell in the range of 105 to 106 °C.

`COCCCN1C[C@H](O)c2cc(S(N)(=O)=O)sc2S1(=O)=O` yielded a melting point of 109 to 111 °C.

Regarding `CN1CCC(N(C)c2ncc3ncnc(Nc4ccc(Cl)c([N+](=O)[O-])c4)c3n2)CC1`, the melting point lay in the range of 210 to 215 °C.

Consider `C#CCNCC1=Cc2cc(S(N)(=O)=O)sc2S(=O)(=O)N1C(C)C`, for which the melting point was 133 to 135 °C.

For the compound `CCC(O)=C1C(=O)OC(C)(C)OC1=O`, the melting point lay within 43 to 46 °C.

Turning to `CCC(CC)(CCCCS(N)(=O)=O)COc1nn2ncnc2cc1C`, the melting point fell in the range of 132 to 133 °C.

`CCOC(=O)NC(Cc1ccccc1)c1ccccc1` (centres undefined) returned a melting point of 74 to 75 °C.

Compound `COc1cc(O)ccc1-c1nc(C)c(-c2cccnc2)[nH]1` registered a melting point of 237 to 240 °C.

In turn, `COCCOCCOc1ccc(C2=N[C@@](C)(C(=O)O)CS2)c(O)c1` came in with a melting point of 82 to 83 °C.

With `Nc1ccccc1Oc1ccccc1-c1ccccc1Oc1ccccc1N`, the melting point was 175 °C.

In the case of `O=S(=O)(CCl)c1ccc(O)cc1`, the melting point turned out to be 110 °C.

For `Cc1ccc(Cn2c(=O)c3c(N4CCN(C)CC4)cc(Cl)cc3n(Cc3ccccc3)c2=O)cc1C`, the melting point fell in the range of 96 to 99 °C.

In the case of `O=S(=O)(CC(Cl)C(F)=C(F)F)c1ccccc1` (centres undefined), the melting point fell in the range of 45 to 47 °C.

Turning to `[N-]=[N+]=NC1(CO)OC(n2ccc(=O)[nH]c2=O)C(O)C1O` (centres undefined), the melting point fell in the range of 86 to 93 °C.

In turn, `Cc1cn(-c2ccc3nnc4c(C)nc(C5CCCCC5)n4c3c2)c(C2CCCCC2)n1` returned a melting point of 224 to 227 °C.

Turning to `COc1ccc(-c2ccc3c(c2)C=C(C(=O)Nc2ccc(CN(C)C4CCOCC4)cc2)CCS3(=O)=O)c(OC)c1`, the melting point fell in the range of 175 to 178 °C.

On to `Cc1cccc(N(c2ccccc2)c2ccc(-c3ccc(-c4ccc(N(c5ccccc5)c5cccc(C)c5)cc4)cc3)cc2)c1`, for which the melting point was 189 to 190 °C.

For `O=C1CCc2c(-c3ccncc3)sc(-c3ccccc3F)c21`, the melting point was in the range of 133 to 135 °C.

Compound `Fc1cc(Br)cc(OCc2ccc3ccccc3c2)c1` had a melting point of 65 to 67 °C.

As to `CCCCCCCCCCCCCCOc1cc(OCCCCCCc2cccc(O)c2O)cc(C(=O)OC)c1`, the melting point lay in the range of 77 to 79 °C.

Turning to `CS(=O)c1ncc2cc(Cl)c(N)nc2n1` (centres undefined), the melting point was 260 to 262 °C.

`COc1cc(C=O)cc(OC)c1OC1OC(CO)C(O)C(O)C1NC(C)=O` (centres undefined) displayed a melting point of 186 to 189 °C.

In the case of `CN(C)S(=O)(=O)c1cccc(Nc2ncc3cc4ccccc4n3n2)c1`, the melting point was 191 to 193 °C.

For the compound `O=[N+]([O-])c1c(Cl)sc(Cl)c1S(=O)(=O)Cl`, the melting point lay in the range of 89 to 91 °C.

Take `COc1ccccc1-c1cc(Cl)cc2c1NC(CN)CO2` (centres undefined): the melting point is 100 °C.

Compound `CCC(C)(C)NC(=O)NC1=CC(=O)OC1` returned a melting point of 169 to 171 °C.

For the compound `O=C(COc1cc(-c2ccccc2F)nc2ccccc12)N1CCOCC1`, the melting point came out at 145 °C.

The compound `COc1cccc2c1C(=O)OC2(C)O` (centres undefined) displayed a melting point of 156 to 158 °C.

`CC1CN(C)CCC1Oc1cccc(NC(=O)c2ccc(F)cc2Cl)n1` (centres undefined) displayed a melting point of 155 to 160 °C.

Compound `CCOC(=O)/C=C/c1cn(-c2ccccc2)nc1OCc1ccc(OCc2nc(-c3ccccc3)oc2C)cc1` had a melting point of 154 to 155 °C.

In the case of `C[C@H](C#Cc1ccc(Cc2ccc3ccccc3c2)s1)N(O)C(N)=O`, the melting point was 134 to 135 °C.

`CNC(=O)C(C(=O)NC(Cc1ccccc1)C(O)CNCC(O)C(Cc1ccccc1)NC(=O)OC(C)(C)C)C(C)(C)C` (centres undefined) registered a melting point of 117 to 120 °C.

Take `O=C1CC(c2cccc(-n3ccnn3)c2)=Nc2ccc(-c3cc(F)ccc3F)cc2N1`: the melting point was 231 °C.

As to `CN1CCN(c2cccc3c2C[C@H](NC(=O)c2ccc(C(=O)C(F)(F)F)cc2)CC3)CC1`, the melting point was in the range of 91 to 93 °C.

Regarding `CCn1cc(CC(=O)O)c(OCCCc2ccc(Cc3ccccn3)cc2OC(C)C)n1`, the melting point lay in the range of 97 to 98 °C.

As to `FC(F)(F)c1cc(CO[C@@H]2CCCN(Cc3ccco3)[C@@H]2c2ccccc2)cc(C(F)(F)F)c1` (relative stereo), the melting point fell in the range of 103 to 104 °C.

With `COCc1cc(C(C)(C)C)cc(COC)c1SSc1c(COC)cc(C(C)(C)C)cc1COC`, the melting point was in the range of 94 to 95 °C.

`Cc1[nH]cnc1Cc1cccc2c1OC(C)(C)OC2`: the melting point was in the range of 172 to 178 °C.

Take `Cc1ccccc1C=CC=C1SC(=S)N(CC(=O)O)C1=O`: the melting point is 210 to 217 °C.

`NNC(=O)c1ccnc2[nH]ccc12` displayed a melting point of 239 to 240 °C.

`Cc1cc(C)c(Nc2nc(C)ncc2S(=O)(=O)c2ccc(N3CCOCC3)cc2)c(C)c1` registered a melting point of 221 to 223 °C.

For the compound `Cc1cccc(Cl)c1NC(=O)Nc1cc(N[C@H]2CC[C@H](O[Si](C)(C)C(C)(C)C)CC2)ncn1`, the melting point lay in the range of 218 to 220 °C.

`COc1ccc(C(=O)Nc2cccc3c2CCN(C)C3)cc1` came in with a melting point of 170 to 172 °C.

`CN1C(=O)C(c2c[nH]c3ncccc23)=C(c2cn(C(=O)OC(C)(C)C)c3ccccc23)C1=O` displayed a melting point of 180 °C.

In turn, `COc1ccc(Cn2c(=O)c(C(=O)NC3CCCCC3)c(O)c3cc(Cl)cnc32)cc1` registered a melting point of 193 °C.

For `CCOC(=O)c1cnc2ccc(OC)cc2c1O`, the melting point was greater than 260 °C.

`CC(=O)Nc1ccc(C(=O)CBr)cc1F`: the melting point stood at 184 °C.

Compound `CCOC(=O)/C(=N\O[C@H]1CCC[C@@H](C)C1)c1csc(N)n1` (relative stereo) yielded a melting point of 91 to 93 °C.

Compound `CCCCCCC1(C(=O)NCCC)c2ccccc2Oc2ccccc21` came in with a melting point of 76 to 77.5 °C.

With `O=S(=O)(c1cnn(-c2c(Cl)cc(C(F)(F)F)cc2Cl)c1-n1cccn1)C(F)(F)F`, the melting point fell in the range of 127 to 133 °C.

As to `COC(=O)COc1ccc(C(=O)C(C)Br)cc1Cl` (centres undefined), the melting point was 63 to 65 °C.

`CCc1cc2c(ccc(=O)n2Cc2ccc(C(=O)OC)cc2)c(CC)n1` gave a melting point of 128 to 130 °C.

`O=C1CCN(Cc2ccccc2O)CC1C(c1ccc(F)cc1)c1ccc(F)cc1` (centres undefined) gave a melting point of 151 to 152 °C.

Compound `CCCCc1nc(Cl)c(COC)n1Cc1ccc2oc(-c3ccccc3-c3nnn[nH]3)c(Br)c2c1` gave a melting point of 213 to 215 °C.

For `CN(C)CCNC(=O)N1CCN(c2ccc(F)cc2)CC1`, the melting point is 99 to 101 °C.

For `CC1(C)Nc2cc(Cl)ccc2NC1=O`, the melting point is 166 to 170 °C.

In the case of `COc1ccc(OC(=O)Cl)cc1C12CC3CC(CC(C3)C1)C2`, the melting point was in the range of 87 to 89 °C.

Compound `Cc1ccc(C2CC(N)=NN2c2nc3ccccc3s2)cc1` (centres undefined) returned a melting point of 282 to 285 °C.
